Structures are written as SMILES.

What is called melting point is the temperature of the solid-liquid transition.

For `Cc1ccc(-c2nn(Cc3cccc(Cl)c3)c(=S)[nH]2)cc1` [Example 47, 2-[(3-Chlorophenyl)methyl]-5-(4-methylphenyl)-1,2-dihydro-3H-1,2,4-triazole-3-thione], the melting point lay in the range of 207 to 208 °C.

Molecule `COc1ccc(-c2nn(Cc3cccc(Cl)c3)c(=S)[nH]2)cc1` [Example 48, 2-[(3-Chlorophenyl)methyl]-5-(4-methoxyphenyl)-1,2-dihydro-3H-1,2,4-triazole-3-thione] gave a melting point of 231 to 233 °C.

`Cc1ccc(Cn2nc(-c3ccccc3Cl)[nH]c2=S)cc1` [Example 50, 5-(2-Chlorophenyl)-1,2-dihydro-2-(4-methylphenyl)methyl-3H-1,2,4-triazole-3-thione] registered a melting point of 162 to 163 °C.

On to `CC(C)(C)c1ccc(Cn2nc(-c3ccccc3Cl)[nH]c2=S)cc1` [Example 51, 5-(2-Chlorophenyl)-1,2-dihydro-2-[(4(1,1-dimethylethyl)phenyl)methyl]-3H-1,2,4-triazole-3-thione], for which the melting point is 211 to 215 °C.

For `S=c1[nH]c(-c2ccccc2Cl)nn1Cc1cccc(Oc2ccccc2)c1` [Example 52, 5-(2-Chlorophenyl)-1,2-dihydro-2-[(3-phenyloxy)phenylmethyl]-3H-1,2,4-triazole-3-thione], the melting point was 137 to 138 °C.

In turn, `FC(F)(F)c1ccc(Cn2nc(-c3ccccc3Cl)[nH]c2=S)cc1` [Example 53, 5-(2-Chlorophenyl)-1,2-dihydro-2-[[4-(trifluoromethyl)phenyl]methyl]-3H-1,2,4-triazole-3-thione] yielded a melting point of 167 to 168 °C.

As for `COc1ccc(Cn2nc(-c3ccccc3Cl)[nH]c2=S)cc1` [Example 54], the melting point was 153 to 154 °C.

With `S=c1[nH]c(-c2ccc(Oc3ccccc3)cc2)nn1Cc1cccc(Cl)c1` [Example 55, 2-[(3-Chlorophenyl)methyl]-5-(4-phenoxyphenyl)-1,2-dihydro-3H-1,2,4-triazole-3-thione], the melting point was in the range of 183 to 184 °C.

`S=c1[nH]c(-c2cccnc2)nn1Cc1cccc(Cl)c1` [Example 56, 2-[(3-Chlorophenyl)methyl]-5-(3-pyridinyl)-1,2-dihydro-3H-1,2,4-triazole-3-thione] showed a melting point of 208 to 209 °C.

`S=c1[nH]c(-c2ccccc2)nn1Cc1cccc(Cl)c1` [Example 57, 2-[(3-Chlorophenyl)methyl]-5-phenyl-1,2-dihydro-3H-1,2,4-triazole-3-thione] showed a melting point of 213 °C.

In turn, `Fc1cccc(Cn2nc(-c3ccccc3Cl)[nH]c2=S)c1` [Example 58, 5-(2-Chlorophenyl)-1,2-dihydro-2-[(3-fluorophenyl)methyl]-3H-1,2,4-triazole-3-thione] returned a melting point of 125 to 126 °C.

Regarding `S=c1[nH]c(-c2ccccc2Cl)nn1Cc1ccccc1I` [Example 59, 5-(2-Chlorophenyl)-1,2-dihydro-2-[(2-iodophenyl)methyl]-3H-1,2,4-triazole-3-thione], the melting point fell in the range of 189 to 190 °C.

In turn, `Cc1ccc(C)c(Cn2nc(-c3ccccc3Cl)[nH]c2=S)c1` [Example 60] yielded a melting point of 166 to 167 °C.

Regarding `Fc1ccc(F)c(Cn2nc(-c3ccccc3Cl)[nH]c2=S)c1` [Example 61, 5-(2-Chlorophenyl)-1,2-dihydro-2-[(2,5-difluorophenyl)methyl]-3H-1,2,4-triazole-3-thione], the melting point fell in the range of 161 to 163 °C.

`O=[N+]([O-])c1ccc(-c2nn(Cc3cccc(Cl)c3)c(=S)[nH]2)cc1` [Example 62, 2-[(3-Chlorophenyl)methyl]-5-(4-nitrophenyl)-1,2-dihydro-3H-1,2,4-triazole-3-thione] returned a melting point of 256 to 258 °C.

For the molecule `S=c1[nH]c(-c2cncnc2)nn1Cc1cccc(Cl)c1` [Example 63, 2-[(3-Chlorophenyl)methyl]-5-(pyrrndin-5-yl) 1,2-dihydro-3H-1,2,4-triazole-3-thione], the melting point is 204 to 207 °C.

`N#Cc1cccc(Cn2nc(-c3ccccc3Cl)[nH]c2=S)c1` [Example 64, 5-(2-Chlorophenyl)-1,2-dihydro-2-[(3-cyanophenyl)methyl]-3H-1,2,4-triazole-3-thione] gave a melting point of 161 to 163 °C.

Molecule `O=[N+]([O-])c1ccc(Cn2nc(-c3ccccc3Cl)[nH]c2=S)cc1` [Example 65, 5-(2-Chlorophenyl)-1,2-dihydro-2-[(4-nitrophenyl)methyl]-3H-1,2,4-triazoe-3-thione] had a melting point of 182 to 183 °C.

As to `S=c1[nH]c(-c2ccccc2Cl)nn1CCc1ccccc1` [Example 66, 5-(2-Chlorophenyl)-1,2-dihydro-2-(2-phenyl)ethyl-3H-1,2,4-triazole-3-thione], the melting point lay in the range of 131 to 133 °C.

(Values after patent US20020086862A1, “Novel compounds” (AstraZeneca AB, priority 1998, published 2002).)
